The source of these data is US20130143866A1, “ANTICANCER COMBINATION TREATMENTS” (priority 2011, published 2013).

One experiment addresses T1, Met (Mus musculus, UniProt P16056).
T1 construct: whole cell lysates were prepared and then subjected to polyacrylamide gel electrophoresis and Western blot analysis for total and phosphorylated Met levels; endogenous in cells; host or cells: +SA mammary tumor cells
The experiment in a line: Western blot analysis of total and phosphorylated (active) Met levels in HGF-stimulated +SA cells. In kind it is cell-based, mice. The settings on record: for HGF-dependent Met tyrosine phosphorylation: summary statement, in a dose-responsive manner. Here is the method: For Western blot analysis, +SA cells were initially plated at a density of 1×10^6 cells/100-mm culture dish, allowed to attach overnight and then incubated in the respective control or treatment media. At the end of treatment period, cells were isolated with trypsin, washed with PBS, and then whole cell lysates were prepared in a Laemmle buffer. Protein concentration in each sample was determined using a protein assay kit (Bio-Rad protein assay kit, Bio Rad, Hercules, Calif., USA). Equal amount of protein (30-50 μg/lane) of each sample was subjected to electrophoresis through 7.5%-15% SDS-polyacrylamide minigels. Minigels within a given treatment were run simultaneously using AccuPower model 500 power supply unit (VWR, Suwanee, Ga., USA). Each gel was then equilibrated in transfer buffer and transblotted at 30 V for 12-16 hours at 4° C. onto a polyvinylidene fluoride (PVDF) membrane (PerkinElmer Lifesciences, Wellesley, Mass., USA) in a Trans-Blot Cell (Bio-Rad Laboratories, Hercules, Calif.) according to the method of Towbin. These PVDF membranes were then blocked with 2% BSA in 10 mM Tris-HCl containing 50 mM NaCl and 0.1% Tween 20, pH 7.4 (TBST) and then, incubated with specific primary antibodies against Met, phospho-Met, cleaved caspase-3, cleaved PARP, and α-tubulin diluted 1:1000 to 1:5000 in 2% BSA in TBST for 2 hours at room temperature or overnight at 4° C. Membranes were then washed 5 times with TBST and incubated with respective horseradish […]-conjugated secondary antibody diluted 1:3000 to 1:5000 in 2% BSA in TBST for 1 hour at room temperature followed by rinsing with TBST for 5 times. Blots were then visualized by chemiluminescence. (Pierce, Rockford, Ill., USA). Images of protein bands from all treatment groups within a given experiment were acquired using Kodak Gel Logic 1500 Imaging System (Carestream Health Inc, New Haven, Conn., USA). The visualization of α-tubulin was used to ensure equal sample loading in each lane.
+SA cells were plated at a density of 1×10^6 cells/100 mm culture dish. Cells were then incubated with serum-free media containing vehicle (control), 5.5 μM SU11274 or 4 μM γ-tocotrienol and 10 ng/mL HGF as the mitogen for a 3-day culture period. Following treatment exposure, cells were incubated in mitogen-free media overnight. Afterwards, cells were stimulated with 100 ng/mL HGF for 30 min Cells incubated in mitogen-free media were used as untreated controls. Following mitogen exposure, whole cell lysates were prepared and then subjected to polyacrylamide gel electrophoresis and Western blot analysis for total and phosphorylated Met levels. α-Tubulin was visualized to ensure equal sample loading in each lane. Each Western blot is a representative image of the data obtained for experiments that were repeated at least three times.
The +SA cells were plated at a density of 1×10^6 cells/100 mm culture dish. Cells were then incubated with serum-free media containing vehicle (control) or 4 μM γ-tocotrienol, and 10 ng/mL HGF as a mitogen. Cells were collected at various times during the next 72-h period. Following treatment exposure at each time point, cells were incubated in mitogen-free media overnight. Afterwards, cells were stimulated with 100 ng/mL HGF for 30 min Cells incubated with mitogen-free media were used as untreated controls. Following mitogen exposure, whole cell lysates were prepared and then subjected to polyacrylamide gel electrophoresis and Western blot analysis for total and phosphorylated (active) Met receptor levels. α-Tubulin was visualized to ensure equal sample loading in each lane. Western blots presented in FIG. 4 are representative of the data obtained for experiments that were repeated at least three times.
Cells were then incubated with serum-free media containing vehicle (control), 3 μM SU11274, 2 μM γ-tocotrienol or the combination of 3 μM SU11274 and 2 μM γ-tocotrienol, and 10 ng/mL HGF as a mitogen for a 3-day culture period. […]
On the technique in general: A western blot detects proteins with antibodies after separation by electrophoresis.

The subject of another experiment is +SA mammary tumor cells. The experiment in a line: HGF-dependent +SA mammary tumor cell growth, viable cell number by MTT colorimetric assay. The format is cell-based, mice. The settings on record: for HGF-dependent +SA cell growth: vs vehicle-treated control; for +SA tumor cell growth: summary statement, HGF-dependent, in a dose-responsive manner. Here is the method:
+SA mammary tumor cells were used for the examples presented herein. […] In addition, +SA cells can form adenocarcinomas that metastasize to the lungs when injected into the mammary gland fat pad of syngeneic female mice. +SA cells were maintained in serum-free defined media containing 10 ng/mL Hepatocyte growth factor (HGF) as the mitogen, Dulbecco's Modified Eagle's Medium (DMEM)/F12 supplemented with 5 mg/mL bovine serum albumin (BSA), 10 μg/mL transferrin, 100 U/mL soybean trypsin inhibitor, 100 U/mL penicillin, 0.1 mg/mL streptomycin and 10 μg/mL insulin at 37° C. in an environment of 95% air and 5% CO2 in humidified incubator. For subculturing, cells were rinsed with sterile Ca^2+ and Mg^2+-free phosphate buffered saline (PBS) and incubated with 0.05% trypsin containing 0.025% EDTA in PBS for 5 min at 37° C. The released cells were centrifuged, resuspended in serum-free media and counted using hemocytometer.
γ-tocotrienol was prepared for the tests of this example by suspending it in a solution of sterile 10% BSA. An appropriate amount of γ-tocotrienol was dissolved in 100 μL of absolute ethyl alcohol and then added to a small volume of sterile 10% BSA in water and incubated overnight at 37° C. This stock solution was used to prepare various concentrations of the treatment media. Ethanol was added to all treatment groups in a given experiment such that the final concentration of ethanol never exceeded 0.1%. Stock solution of the Met inhibitor, SU11274 was prepared in DMSO and DMSO was added to all treatment media such that the final concentration was same in all treatment groups and never exceeded a concentration of 0.1%.
+SA cells were initially seeded at a density of 5×10^4 cells/well (6 replicates/group) in 24-well plates in serum-free defined media containing 10 ng/mL HGF as mitogen and allowed to attach overnight. For growth studies, +SA cells were maintained in serum-free defined media containing various doses of HGF over a 3-day culture period. In the antiproliferative experiments, cells were exposed to respective experimental treatments containing various concentrations of SU11274 or γ-tocotrienol alone or in combination for three days. On the fourth day, cells were divided into different treatment groups and treated with various concentrations of SU11274 or γ-tocotrienol alone or in combination for 24 hours. At the end of the treatment exposure period, the viable +SA cell number was determined by 3-(4,5-dimethylthiazol-2yl)-2,5-diphenyl tetrazolium bromide (MTT) colorimetric assay. Control and treatment media in various treatment groups in 24-well plates were replaced with fresh media containing 0.41 mg/ml MTT. After 4-h incubation period, the media was removed and MTT crystals were dissolved in isopropanol (1 ml/well), and the optical density of each sample was measured at 570 nm on a microplate reader (SpectraCount, Packard BioScience Company). The number of cells/well was calculated against a standard curve prepared by plating various concentrations of cells, as determined by hemocytometer, at the beginning of each experiment.
Vertical bars indicate mean viable cell number±SEM for six replicates in each treatment group. Differences among various treatment groups in +SA cell growth studies were determined by the analysis of variance (ANOVA) followed by Dunnett's t test. A difference of P<0.05 was considered statistically significant as compared to the vehicle-treated control.
Effects of various doses of SU11274, a specific Met Receptor Tyrosine Kinase inhibitor, or γ-tocotrienol on HGF-dependent +SA mammary tumor cell growth after a 3-day culture period are shown in FIG. 2. […] In the present example, +SA cells were initially plated at a density of 5×10^4 cells/well (6 replicates/group) in 24-well plates and exposed to various doses of SU11274 or γ-tocotrienol in the presence of 10 ng/mL HGF throughout a 3-day culture period. Viable cell number was determined using the MTT colorimetric assay. […]

The mark [1] stands for this setting: 5.5 μM SU11274, 3-day culture, then 100 ng/mL HGF for 30 min, vs vehicle-treated control.
Setting [2] is: 4 μM γ-tocotrienol, 10 ng/mL HGF, time course over 72 h, vs vehicle-treated control.

T1 sequence (P16056 25-1379): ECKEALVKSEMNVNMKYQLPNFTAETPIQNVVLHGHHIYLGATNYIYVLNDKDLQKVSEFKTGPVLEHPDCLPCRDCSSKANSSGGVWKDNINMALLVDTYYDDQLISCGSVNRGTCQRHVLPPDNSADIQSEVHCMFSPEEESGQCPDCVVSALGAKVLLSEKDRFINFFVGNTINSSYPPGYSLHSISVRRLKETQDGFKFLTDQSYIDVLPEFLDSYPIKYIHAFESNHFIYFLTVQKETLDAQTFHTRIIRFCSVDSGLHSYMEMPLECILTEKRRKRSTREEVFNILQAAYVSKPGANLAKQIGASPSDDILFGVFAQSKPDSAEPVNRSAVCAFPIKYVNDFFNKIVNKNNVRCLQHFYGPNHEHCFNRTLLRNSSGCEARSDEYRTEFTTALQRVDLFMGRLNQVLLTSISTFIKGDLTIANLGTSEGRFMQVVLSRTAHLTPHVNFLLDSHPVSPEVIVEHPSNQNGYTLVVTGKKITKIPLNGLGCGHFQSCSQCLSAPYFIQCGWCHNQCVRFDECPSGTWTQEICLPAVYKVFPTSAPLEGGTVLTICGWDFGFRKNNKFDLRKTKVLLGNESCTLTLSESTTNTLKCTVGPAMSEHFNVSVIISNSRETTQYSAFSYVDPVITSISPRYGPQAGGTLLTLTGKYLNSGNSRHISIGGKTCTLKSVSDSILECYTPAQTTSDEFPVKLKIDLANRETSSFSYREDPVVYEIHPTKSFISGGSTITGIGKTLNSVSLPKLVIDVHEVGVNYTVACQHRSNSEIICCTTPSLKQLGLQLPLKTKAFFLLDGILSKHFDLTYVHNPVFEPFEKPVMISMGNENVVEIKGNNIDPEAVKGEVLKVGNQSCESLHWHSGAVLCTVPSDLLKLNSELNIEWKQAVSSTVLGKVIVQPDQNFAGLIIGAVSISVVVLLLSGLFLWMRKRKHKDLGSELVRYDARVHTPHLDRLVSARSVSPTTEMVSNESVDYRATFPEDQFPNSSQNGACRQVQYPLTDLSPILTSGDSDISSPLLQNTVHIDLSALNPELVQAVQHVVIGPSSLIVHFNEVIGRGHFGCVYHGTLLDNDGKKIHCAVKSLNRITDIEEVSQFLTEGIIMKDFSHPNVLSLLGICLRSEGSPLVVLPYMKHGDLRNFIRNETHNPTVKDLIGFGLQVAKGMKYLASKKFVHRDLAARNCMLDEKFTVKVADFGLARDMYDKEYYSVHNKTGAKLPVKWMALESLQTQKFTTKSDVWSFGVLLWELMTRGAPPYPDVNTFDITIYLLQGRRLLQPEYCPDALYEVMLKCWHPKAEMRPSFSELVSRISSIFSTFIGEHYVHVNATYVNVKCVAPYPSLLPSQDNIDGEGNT

With `Cc1[nH]c(/C=C2\C(=O)Nc3ccc(S(=O)(=O)N(C)c4cccc(Cl)c4)cc32)c(C)c1C(=O)N1CCN(C)CC1` [SU11274, reference compound], on Met (setting [1]), the “HGF-dependent Met tyrosine phosphorylation (activation)” value is recorded as “large relative reduction” and the “total intracellular levels of Met receptors” value is “no effect”. Besides, the “HGF-dependent Met tyrosine phosphorylation” value at Met is “inhibited”. Besides, the “HGF-dependent +SA cell growth” value with +SA mammary tumor cells (4.5-5.5 μM SU11274, 10 ng/mL HGF, 3-day culture, P<0.05) is listed as “significantly inhibited”. Moreover, in the experiment on +SA mammary tumor cells (subeffective dose 3 μM SU11274 alone, 10 ng/mL HGF, 3-day culture), the “HGF-dependent +SA cell growth” value is “no effect”. Further, the “+SA tumor cell growth” value in the experiment with +SA mammary tumor cells is reported as “inhibited”.
Regarding `CC(C)=CCC/C(C)=C/CC/C(C)=C/CC[C@]1(C)CCc2cc(O)c(C)c(C)c2O1` [γ-tocotrienol], on Met (setting [2]), the “culture exposure time at which reduction in total levels of Met protein was maximal” value stood at 3 days and the “treatment exposure time at which reduction in total levels of Met protein started” value was found to be 24 h. Further, the “level of total Met protein” value on Met (4 μM γ-tocotrienol, 3-day culture, then 100 ng/mL HGF for 30 min) is given as “significant reduction”. Further, the “HGF-induced Met phosphorylation” value on Met (4 μM γ-tocotrienol, 3-day culture, then 100 ng/mL HGF for 30 min, mirrors loss of Met expression) is reported as “loss”. Moreover, the “HGF-dependent Met tyrosine phosphorylation” value on Met is listed as “inhibited”. Also, the “HGF-dependent +SA cell growth” value in the experiment on +SA mammary tumor cells (4 μM γ-tocotrienol, 10 ng/mL HGF, 3-day culture, P<0.05) was “significantly inhibited”. The “HGF-dependent +SA cell growth” value in the experiment with +SA mammary tumor cells (subeffective dose 2 μM γ-tocotrienol alone, 10 ng/mL HGF, 3-day culture) was “no effect”. In addition, the “+SA tumor cell growth” value with +SA mammary tumor cells is “inhibited”.
For “HGF: Hepatocyte growth factor (HGF), the mitogen, purchased from PeproTech Inc.”, the “growth of neoplastic +SA mammary epithelial cells (viable cell number)” value in the experiment on +SA mammary tumor cells (stimulation with 1-10 ng/mL HGF, 3-day culture, dose-responsive, vs mitogen-free control media, P<0.05) is recorded as “significantly increased”.
